Assay results taken from ChEMBL document CHEMBL4476879, “MST1 kinase inhibitors and methods of their use” (2013).
Calls of active or inactive are those of the source.

Assays:
Type in all cases: functional, organism-based
Mus musculus [1] = assay: Therapeutic anti-inflammatory activity in mouse model of collagen-induced arthritis disease assessed as effect on ankle thickness at 10 to 100 mg/kg, po BID for 21 days starting on day 20 after immunization
Mus musculus [2] = assay: Therapeutic anti-inflammatory activity in mouse model of experimental autoimmune encephalomyelitis disease assessed as reduction in disease clinical scores at 10 mg/kg, po BID for 14 days starting on day 9 after MOG peptide immunization
Mus musculus [3] = assay: Anti-inflammatory activity in mouse model of concanavalin A-induced hepatitis assessed as effect on IFNgamma level at 10 to 100 mg/kg, po dosed dosed 16 hrs and 1 hr before and 8 hrs after concanavalin A challenge
Rattus norvegicus [4] = assay: Therapeutic anti-inflammatory activity in rat model of collagen-induced arthritis disease assessed as reduction in cumulative arthritis scores at 10 to 25 mg/kg, po BID for 21 days starting on day 11 after immunization
Mus musculus [5] = assay: Therapeutic anti-inflammatory activity in mouse model of experimental autoimmune encephalomyelitis disease assessed as reduction in disease clinical scores at 30 mg/kg, po BID for 14 days starting on day 9 after MOG peptide immunization
Mus musculus [6] = assay: Therapeutic anti-inflammatory activity in mouse model of experimental autoimmune encephalomyelitis disease assessed as reduction in disease clinical scores at 100 mg/kg, po for 14 days ( dosed BID on days 9 to 13 and QD on day 14 to 23 starting on day 9 after MOG peptide immunization
Rattus norvegicus [7] = assay: Therapeutic anti-inflammatory activity in rat model of experimental autoimmune encephalomyelitis disease assessed as reduction in disease severity clinical scores at 10 to 50 mg/kg, po BID starting on day 9 after MOG peptide immunization
Mus musculus [8] = assay: Anti-inflammatory activity in mouse model of concanavalin A-induced hepatitis assessed as reduction in ALT level at 10 to 100 mg/kg, po dosed dosed 16 hrs and 1 hr before and 8 hrs after concanavalin A challenge
Mus musculus [9] = assay: Anti-inflammatory activity in mouse model of concanavalin A-induced hepatitis assessed as reduction in MCP1 level at 10 to 100 mg/kg, po dosed dosed 16 hrs and 1 hr before and 8 hrs after concanavalin A challenge
Mus musculus [10] = assay: Prophylactic anti-inflammatory activity in mouse model of experimental autoimmune encephalomyelitis disease assessed as reduction in disease clinical scores at 10 mg/kg, po BID for 22 days starting on day (-1) before MOG peptide immunization
Mus musculus [11] = assay: Anti-inflammatory activity in mouse model of concanavalin A-induced hepatitis assessed as reduction in AST level at 10 to 100 mg/kg, po dosed dosed 16 hrs and 1 hr before and 8 hrs after concanavalin A challenge
Mus musculus [12] = assay: Prophylactic anti-inflammatory activity in mouse model of experimental autoimmune encephalomyelitis disease assessed as reduction in disease clinical scores at 100 mg/kg, po for 22 days (dosed BID on days-1 to 9 and QD on days 10 to 21) starting on day (-1) before MOG peptide immunization
Mus musculus [13] = assay: Therapeutic anti-inflammatory activity in mouse model of collagen-induced arthritis disease assessed as reduction in cumulative arthritis scores at 10 to 100 mg/kg, po BID for 21 days starting on day 20 after immunization
Mus musculus [14] = assay: Prophylactic anti-inflammatory activity in mouse model of experimental autoimmune encephalomyelitis disease assessed as reduction in disease clinical scores at 30 mg/kg, po BID for 22 days starting on day (-1) before MOG peptide immunization
Mus musculus [15] = assay: Anti-inflammatory activity in mouse model of concanavalin A-induced hepatitis assessed as reduction in IL6 level at 10 to 100 mg/kg, po dosed dosed 16 hrs and 1 hr before and 8 hrs after concanavalin A challenge
Rattus norvegicus [16] = assay: Therapeutic anti-inflammatory activity in rat model of collagen-induced arthritis disease assessed as effect on ankle thickness by measuring water displacement at 50 mg/kg, po QD for 21 days starting on day 11 after immunization
Rattus norvegicus [17] = assay: Therapeutic anti-inflammatory activity in rat model of collagen-induced arthritis disease assessed as effect on ankle thickness by measuring water displacement at 10 to 25 mg/kg, po BID for 21 days starting on day 11 after immunization
Rattus norvegicus [18] = assay: Therapeutic anti-inflammatory activity in rat model of collagen-induced arthritis disease assessed as reduction in cumulative arthritis scores at 50 mg/kg, po QD for 21 days starting on day 11 after immunization
Mus musculus [19] = assay: Anti-inflammatory activity in mouse model of concanavalin A-induced hepatitis assessed as reduction in TNFalpha level at 10 to 100 mg/kg, po dosed dosed 16 hrs and 1 hr before and 8 hrs after concanavalin A challenge
Mus musculus [20] = assay: Anti-inflammatory activity in mouse model of concanavalin A-induced hepatitis assessed as reduction in AST level at 1 to 10 mg/kg, po dosed dosed 16 hrs and 1 hr before and 8 hrs after concanavalin A challenge
Rattus norvegicus [21] = assay: Therapeutic anti-inflammatory activity in rat model of experimental autoimmune encephalomyelitis disease assessed as reduction in disease severity clinical scores at 0.3 to 10 mg/kg, po QD starting on day 10 after MOG peptide immunization
Mus musculus [22] = assay: Anti-inflammatory activity in mouse model of concanavalin A-induced hepatitis assessed as reduction in ALT level at 1 to 10 mg/kg, po dosed dosed 16 hrs and 1 hr before and 8 hrs after concanavalin A challenge
Mus musculus [23] = assay: Anti-inflammatory activity in mouse model of concanavalin A-induced hepatitis assessed as reduction in MCP1 level at 1 to 10 mg/kg, po dosed dosed 16 hrs and 1 hr before and 8 hrs after concanavalin A challenge
Mus musculus [24] = assay: Anti-inflammatory activity in mouse model of concanavalin A-induced hepatitis assessed as reduction in IL6 level at 1 to 10 mg/kg, po dosed dosed 16 hrs and 1 hr before and 8 hrs after concanavalin A challenge
Mus musculus [25] = assay: Anti-inflammatory activity in mouse model of concanavalin A-induced hepatitis assessed as effect on IFNgamma level at 1 to 10 mg/kg, po dosed dosed 16 hrs and 1 hr before and 8 hrs after concanavalin A challenge
Mus musculus [26] = assay: Anti-inflammatory activity in mouse model of concanavalin A-induced hepatitis assessed as reduction in TNFalpha level at 1 to 10 mg/kg, po dosed dosed 16 hrs and 1 hr before and 8 hrs after concanavalin A challenge
Mus musculus [27] = assay: Therapeutic anti-inflammatory activity in mouse model of collagen-induced arthritis disease assessed as reduction in cumulative arthritis scores at 10 to 50 mg/kg, po BID for 3 weeks days starting on day 20 after collagen immunization
Mus musculus [28] = assay: Therapeutic anti-inflammatory activity in mouse model of collagen-induced arthritis disease assessed as effect on ankle thickness at 10 to 30 mg/kg, sc BID for 3 weeks days starting on day 20 after collagen immunization
Mus musculus [29] = assay: Therapeutic anti-inflammatory activity in mouse model of experimental autoimmune encephalomyelitis disease assessed as reduction in disease clinical scores at 3 to 30 mg/kg, po BID for 21 days starting on day 9 after MOG peptide immunization
Mus musculus [30] = assay: Therapeutic anti-inflammatory activity in mouse model of collagen-induced arthritis disease assessed as effect on ankle thickness at 10 to 50 mg/kg, po BID for 3 weeks days starting on day 20 after collagen immunization
Mus musculus [31] = assay: Therapeutic anti-inflammatory activity in mouse model of experimental autoimmune encephalomyelitis disease assessed as reduction in disease clinical scores at 3 to 10 mg/kg, sc BID for 12 days starting on day 9 after MOG peptide immunization
Mus musculus [32] = assay: Therapeutic anti-inflammatory activity in mouse model of collagen-induced arthritis disease assessed as reduction in cumulative arthritis scores at 10 to 30 mg/kg, sc BID for 3 weeks days starting on day 20 after collagen immunization

Measured: Activity

CN(C1CC1)S(=O)(=O)c1ccc(-c2cnc(N)c(-c3ccc4c(c3)CCNC4=O)c2)cc1
active: Mus musculus [1] | Mus musculus [2] | Mus musculus [3] | Rattus norvegicus [4] | Mus musculus [5] | Mus musculus [6] | Rattus norvegicus [7] Dose-dependent effect | Mus musculus [8] | Mus musculus [9] | Mus musculus [10] | Mus musculus [11] | Mus musculus [12] | Mus musculus [13] | Mus musculus [14] | Mus musculus [15] | Rattus norvegicus [16] | Rattus norvegicus [17] | Rattus norvegicus [18] | Mus musculus [19]

N#CC1(c2ccc(-c3cnc(N)c(-c4ccc5c(c4)CCNC5=O)n3)cc2)CC1
active: Mus musculus [20] | Rattus norvegicus [21] | Mus musculus [22] | Mus musculus [23] | Mus musculus [24] | Mus musculus [25] | Mus musculus [26]

CN(C1CC1)S(=O)(=O)c1ccc(-c2cnc(N)c(-c3ccc4c(c3)CCNC4=O)n2)cc1
active: Mus musculus [27] | Mus musculus [28] | Mus musculus [29] Dose-dependent effect | Mus musculus [30] | Mus musculus [31] Dose-dependent effect | Mus musculus [32]
